Test results from paper PMC11606603, “The membrane domains of mammalian adenylyl cyclases are lipid receptors” (eLife, 2024).
Where “and” joins values, the source holds several entries; their conditions need not be identical. Equal entries are not always repeated. Entries after “also recorded” stand apart in the source; their conditions may differ.

Assays:
Type in all cases: biochemical
mAC3 = target: T1, mAC3 (Homo sapiens, UniProt O60266); assay: AC assay, Gsα-stimulated mAC3 in membranes from transfected HEK293 cells; conditions: for mAC3 activity [%] (100% = 300nM Gsα stimulation): individual experiments
T1 construct: Human mAC genes were from GenScript and fitted with a C-terminal FLAG-tag; FLAG (C); made in house; host or cells: HEK293, permanently transfected; membrane preparation
Method in brief: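 EC50 and IC50 values come from cAMP production, read with a Cisbio cAMP kit and converted via a standard curve. Assay mix held 1 mM ATP, 2 mM MgCl2, 3 mM creatine phosphate and 60 μg/ml creatine kinase in 50 mM MOPS pH 7.5, using transfected HEK293 membranes.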

mAC1 = target: T2, mAC1 (Homo sapiens, UniProt Q08828); assay: AC assay, Gsα-stimulated mAC1 in membranes from transfected HEK293 cells; conditions: 20 µM fatty acid; 300 nM Gsα; single experiments
T2 construct: Human mAC genes were from GenScript and fitted with a C-terminal FLAG-tag; FLAG (C); made in house; host or cells: HEK293, permanently transfected; membrane preparation
Method in brief: (§1)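 cAMP formation was quantified by HTRF against a cAMP standard curve, with EC50 or IC50 derived by curve fitting. Reactions contained 1 mM ATP, 2 mM MgCl2, 3 mM creatine phosphate, 60 μg/ml creatine kinase and 50 mM MOPS pH 7.5, using membranes of stably transfected HEK293 cells carrying FLAG-tagged human AC.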

mAC8 = target: T3, mAC8 (Homo sapiens, UniProt P40145); assay: AC assay, Gsα-stimulated mAC8 in membranes from transfected HEK293 cells; conditions: 20µM fatty acid concentration
T3 construct: Human mAC genes were from GenScript and fitted with a C-terminal FLAG-tag; FLAG (C); made in house; host or cells: HEK293, permanently transfected; membrane preparation
Method in brief: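 Human AC, FLAG-tagged, stably expressed in HEK293; membranes used as enzyme. 1 mM ATP, 2 mM MgCl2, ATP regeneration, MOPS pH 7.5; cAMP kit readout.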

mAC4 = target: T4, mAC4 (Homo sapiens, UniProt Q8NFM4); assay: AC assay, Gsα-stimulated mAC4 in membranes from transfected HEK293 cells; conditions: 20 µM fatty acid; 300 nM Gsα; single experiments
T4 construct: Human mAC genes were from GenScript and fitted with a C-terminal FLAG-tag; FLAG (C); made in house; host or cells: HEK293, permanently transfected; membrane preparation
T4 sequence (Q8NFM4 1-1077): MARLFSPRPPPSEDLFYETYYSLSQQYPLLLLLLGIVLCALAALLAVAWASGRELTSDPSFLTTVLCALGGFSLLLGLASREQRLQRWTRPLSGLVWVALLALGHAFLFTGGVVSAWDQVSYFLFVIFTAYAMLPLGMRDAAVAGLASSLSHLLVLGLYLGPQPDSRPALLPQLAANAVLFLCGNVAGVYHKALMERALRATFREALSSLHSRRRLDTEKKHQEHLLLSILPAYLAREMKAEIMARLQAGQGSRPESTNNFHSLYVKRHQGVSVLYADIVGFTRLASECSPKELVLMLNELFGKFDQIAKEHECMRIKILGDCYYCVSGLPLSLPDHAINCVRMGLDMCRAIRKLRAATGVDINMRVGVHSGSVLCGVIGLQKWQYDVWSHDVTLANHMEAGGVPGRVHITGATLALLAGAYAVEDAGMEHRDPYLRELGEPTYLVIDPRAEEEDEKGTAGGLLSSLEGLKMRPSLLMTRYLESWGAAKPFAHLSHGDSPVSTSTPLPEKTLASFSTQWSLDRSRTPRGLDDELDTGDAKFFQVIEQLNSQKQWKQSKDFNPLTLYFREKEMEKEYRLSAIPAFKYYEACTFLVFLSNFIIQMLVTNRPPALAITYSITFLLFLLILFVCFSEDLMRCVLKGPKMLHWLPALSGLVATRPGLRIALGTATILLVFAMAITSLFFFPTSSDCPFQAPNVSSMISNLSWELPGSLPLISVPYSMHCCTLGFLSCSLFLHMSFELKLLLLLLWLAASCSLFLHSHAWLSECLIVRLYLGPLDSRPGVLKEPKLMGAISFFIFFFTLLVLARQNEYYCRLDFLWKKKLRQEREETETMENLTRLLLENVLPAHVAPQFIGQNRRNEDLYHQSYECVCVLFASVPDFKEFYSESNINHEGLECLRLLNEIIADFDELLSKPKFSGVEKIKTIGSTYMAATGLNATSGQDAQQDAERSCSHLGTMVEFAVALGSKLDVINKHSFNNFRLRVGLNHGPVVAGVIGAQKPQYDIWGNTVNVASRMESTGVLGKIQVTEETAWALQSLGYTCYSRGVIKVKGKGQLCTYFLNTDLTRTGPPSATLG
Method in brief: as §1

mAC6 = target: T5, mAC6 (Homo sapiens, UniProt O43306); assay: AC assay, Gsα-stimulated mAC6 in membranes from transfected HEK293 cells; conditions: 20µM fatty acid concentration
T5 construct: Human mAC genes were from GenScript and fitted with a C-terminal FLAG-tag; FLAG (C); made in house; host or cells: HEK293, permanently transfected; membrane preparation
Method in brief: as §1

mAC5 = target: T6, mAC5 (Homo sapiens, UniProt O95622); assay: AC assay, Gsα-stimulated mAC5 in membranes from transfected HEK293 cells
T6 construct: Human mAC genes were from GenScript and fitted with a C-terminal FLAG-tag; FLAG (C); made in house; host or cells: HEK293, permanently transfected; membrane preparation
Method in brief: as §1

T5 sequence (O43306 whole entry): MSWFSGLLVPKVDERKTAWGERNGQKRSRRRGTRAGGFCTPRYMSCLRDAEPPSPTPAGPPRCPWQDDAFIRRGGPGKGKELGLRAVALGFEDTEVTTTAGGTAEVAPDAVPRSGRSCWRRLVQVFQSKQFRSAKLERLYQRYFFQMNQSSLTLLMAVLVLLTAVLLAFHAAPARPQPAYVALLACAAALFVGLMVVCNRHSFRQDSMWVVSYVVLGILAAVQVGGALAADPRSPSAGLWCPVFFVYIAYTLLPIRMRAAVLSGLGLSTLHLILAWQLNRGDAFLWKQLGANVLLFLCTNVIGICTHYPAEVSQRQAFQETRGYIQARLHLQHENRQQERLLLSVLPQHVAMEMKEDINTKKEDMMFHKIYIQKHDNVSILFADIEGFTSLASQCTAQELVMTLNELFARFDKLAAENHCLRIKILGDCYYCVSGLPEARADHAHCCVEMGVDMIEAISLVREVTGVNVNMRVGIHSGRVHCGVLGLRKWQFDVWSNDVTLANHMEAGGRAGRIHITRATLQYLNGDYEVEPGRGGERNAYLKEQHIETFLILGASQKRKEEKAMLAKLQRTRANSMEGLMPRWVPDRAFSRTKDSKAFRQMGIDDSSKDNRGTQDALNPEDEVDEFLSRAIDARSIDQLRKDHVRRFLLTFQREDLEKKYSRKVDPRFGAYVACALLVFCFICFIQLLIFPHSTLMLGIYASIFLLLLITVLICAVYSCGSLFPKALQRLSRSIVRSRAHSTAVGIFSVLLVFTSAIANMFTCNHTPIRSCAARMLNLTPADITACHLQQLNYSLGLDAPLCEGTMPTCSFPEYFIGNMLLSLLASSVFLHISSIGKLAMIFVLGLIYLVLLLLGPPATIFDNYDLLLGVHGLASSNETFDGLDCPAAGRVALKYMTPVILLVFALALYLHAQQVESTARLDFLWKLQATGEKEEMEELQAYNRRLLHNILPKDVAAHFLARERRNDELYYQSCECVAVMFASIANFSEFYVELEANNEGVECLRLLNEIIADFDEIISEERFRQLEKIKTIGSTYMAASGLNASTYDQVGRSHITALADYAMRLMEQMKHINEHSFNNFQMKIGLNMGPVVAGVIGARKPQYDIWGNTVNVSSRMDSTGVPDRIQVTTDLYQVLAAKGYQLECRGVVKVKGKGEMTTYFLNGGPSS
T6 sequence (O95622 whole entry): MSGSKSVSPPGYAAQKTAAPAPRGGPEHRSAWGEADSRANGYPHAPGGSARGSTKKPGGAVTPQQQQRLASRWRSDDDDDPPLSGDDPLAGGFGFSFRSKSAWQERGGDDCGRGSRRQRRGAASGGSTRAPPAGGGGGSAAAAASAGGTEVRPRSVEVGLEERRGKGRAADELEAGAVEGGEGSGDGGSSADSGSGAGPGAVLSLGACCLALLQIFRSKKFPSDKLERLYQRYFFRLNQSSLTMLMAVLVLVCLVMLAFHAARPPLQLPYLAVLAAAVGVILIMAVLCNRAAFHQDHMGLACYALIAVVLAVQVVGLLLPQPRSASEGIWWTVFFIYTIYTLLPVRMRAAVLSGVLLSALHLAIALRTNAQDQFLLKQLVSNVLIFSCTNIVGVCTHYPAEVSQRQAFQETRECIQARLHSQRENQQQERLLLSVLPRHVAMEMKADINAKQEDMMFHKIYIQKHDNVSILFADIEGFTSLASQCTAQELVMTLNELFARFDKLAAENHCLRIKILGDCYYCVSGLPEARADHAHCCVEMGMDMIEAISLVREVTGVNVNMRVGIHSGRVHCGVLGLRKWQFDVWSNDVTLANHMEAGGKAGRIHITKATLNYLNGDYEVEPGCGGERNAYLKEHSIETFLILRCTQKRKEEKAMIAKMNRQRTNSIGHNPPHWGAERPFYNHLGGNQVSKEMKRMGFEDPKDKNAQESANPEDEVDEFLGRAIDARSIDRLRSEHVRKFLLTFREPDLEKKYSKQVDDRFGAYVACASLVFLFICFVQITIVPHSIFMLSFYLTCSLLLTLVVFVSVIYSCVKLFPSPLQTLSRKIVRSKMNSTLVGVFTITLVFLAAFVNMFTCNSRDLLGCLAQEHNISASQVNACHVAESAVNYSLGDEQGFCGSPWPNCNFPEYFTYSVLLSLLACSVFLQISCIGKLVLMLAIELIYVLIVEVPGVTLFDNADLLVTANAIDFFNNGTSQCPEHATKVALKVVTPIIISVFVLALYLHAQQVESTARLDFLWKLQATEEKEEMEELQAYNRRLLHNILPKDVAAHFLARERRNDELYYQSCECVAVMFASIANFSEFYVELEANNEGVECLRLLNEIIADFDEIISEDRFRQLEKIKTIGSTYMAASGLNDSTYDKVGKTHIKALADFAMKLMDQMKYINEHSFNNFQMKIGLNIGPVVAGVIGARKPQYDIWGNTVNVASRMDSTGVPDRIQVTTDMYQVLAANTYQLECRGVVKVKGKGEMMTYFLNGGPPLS
T2 sequence (Q08828 whole entry): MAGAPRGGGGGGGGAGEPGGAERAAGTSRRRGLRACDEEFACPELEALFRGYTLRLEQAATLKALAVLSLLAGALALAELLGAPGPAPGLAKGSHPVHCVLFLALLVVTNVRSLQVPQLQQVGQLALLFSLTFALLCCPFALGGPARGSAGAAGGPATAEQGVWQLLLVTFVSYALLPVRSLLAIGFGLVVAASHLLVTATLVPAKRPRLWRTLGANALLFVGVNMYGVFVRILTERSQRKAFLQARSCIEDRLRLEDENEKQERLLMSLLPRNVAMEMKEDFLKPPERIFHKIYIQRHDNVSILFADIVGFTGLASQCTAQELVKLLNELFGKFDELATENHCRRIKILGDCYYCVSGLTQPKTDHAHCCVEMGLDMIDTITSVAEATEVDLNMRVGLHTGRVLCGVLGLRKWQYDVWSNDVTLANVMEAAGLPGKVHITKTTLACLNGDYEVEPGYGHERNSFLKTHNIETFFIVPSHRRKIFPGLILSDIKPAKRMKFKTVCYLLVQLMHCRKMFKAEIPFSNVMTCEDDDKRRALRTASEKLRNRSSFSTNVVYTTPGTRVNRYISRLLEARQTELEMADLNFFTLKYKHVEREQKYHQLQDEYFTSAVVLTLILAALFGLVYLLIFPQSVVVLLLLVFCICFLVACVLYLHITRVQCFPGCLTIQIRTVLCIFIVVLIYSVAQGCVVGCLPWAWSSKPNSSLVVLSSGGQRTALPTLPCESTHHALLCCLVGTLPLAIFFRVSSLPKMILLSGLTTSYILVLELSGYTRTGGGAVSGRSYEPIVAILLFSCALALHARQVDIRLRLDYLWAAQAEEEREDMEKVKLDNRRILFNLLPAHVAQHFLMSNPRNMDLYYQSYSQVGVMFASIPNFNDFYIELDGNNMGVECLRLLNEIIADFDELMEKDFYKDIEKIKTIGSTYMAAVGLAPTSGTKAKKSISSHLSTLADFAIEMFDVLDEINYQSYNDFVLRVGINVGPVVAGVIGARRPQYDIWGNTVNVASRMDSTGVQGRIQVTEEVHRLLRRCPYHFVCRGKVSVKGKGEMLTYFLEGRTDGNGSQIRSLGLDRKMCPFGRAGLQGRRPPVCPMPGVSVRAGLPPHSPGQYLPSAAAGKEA
T1 sequence (O60266 whole entry): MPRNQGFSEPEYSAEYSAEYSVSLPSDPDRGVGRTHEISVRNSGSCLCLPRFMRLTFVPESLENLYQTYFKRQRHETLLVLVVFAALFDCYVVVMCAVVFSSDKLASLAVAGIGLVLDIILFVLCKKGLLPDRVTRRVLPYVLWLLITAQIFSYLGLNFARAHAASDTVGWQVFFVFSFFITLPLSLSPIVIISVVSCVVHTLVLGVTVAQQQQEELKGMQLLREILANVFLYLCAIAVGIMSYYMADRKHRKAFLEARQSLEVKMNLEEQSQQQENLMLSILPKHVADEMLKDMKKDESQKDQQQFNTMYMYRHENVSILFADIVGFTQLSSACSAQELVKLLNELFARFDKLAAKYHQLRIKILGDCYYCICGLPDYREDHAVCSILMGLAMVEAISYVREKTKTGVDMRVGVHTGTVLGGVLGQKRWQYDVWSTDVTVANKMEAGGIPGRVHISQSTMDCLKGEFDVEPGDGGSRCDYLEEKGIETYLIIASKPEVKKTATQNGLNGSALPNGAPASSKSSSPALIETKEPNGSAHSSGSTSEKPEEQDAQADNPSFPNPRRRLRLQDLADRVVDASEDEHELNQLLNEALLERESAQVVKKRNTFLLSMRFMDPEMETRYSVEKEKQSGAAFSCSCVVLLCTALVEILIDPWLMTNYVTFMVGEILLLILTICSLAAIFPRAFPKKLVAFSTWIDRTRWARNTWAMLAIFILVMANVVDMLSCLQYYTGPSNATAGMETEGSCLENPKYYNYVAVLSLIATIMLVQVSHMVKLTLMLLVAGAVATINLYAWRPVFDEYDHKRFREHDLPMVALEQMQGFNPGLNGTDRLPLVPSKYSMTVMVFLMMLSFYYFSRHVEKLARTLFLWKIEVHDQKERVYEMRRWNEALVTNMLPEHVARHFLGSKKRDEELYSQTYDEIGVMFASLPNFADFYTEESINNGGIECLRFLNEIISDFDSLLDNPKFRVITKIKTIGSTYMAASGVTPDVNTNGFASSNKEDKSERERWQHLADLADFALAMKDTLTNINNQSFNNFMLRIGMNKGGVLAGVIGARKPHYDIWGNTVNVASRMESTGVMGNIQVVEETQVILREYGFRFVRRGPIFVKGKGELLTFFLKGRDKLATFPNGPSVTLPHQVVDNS
T1 sequence (P63092 whole entry Q227L partner): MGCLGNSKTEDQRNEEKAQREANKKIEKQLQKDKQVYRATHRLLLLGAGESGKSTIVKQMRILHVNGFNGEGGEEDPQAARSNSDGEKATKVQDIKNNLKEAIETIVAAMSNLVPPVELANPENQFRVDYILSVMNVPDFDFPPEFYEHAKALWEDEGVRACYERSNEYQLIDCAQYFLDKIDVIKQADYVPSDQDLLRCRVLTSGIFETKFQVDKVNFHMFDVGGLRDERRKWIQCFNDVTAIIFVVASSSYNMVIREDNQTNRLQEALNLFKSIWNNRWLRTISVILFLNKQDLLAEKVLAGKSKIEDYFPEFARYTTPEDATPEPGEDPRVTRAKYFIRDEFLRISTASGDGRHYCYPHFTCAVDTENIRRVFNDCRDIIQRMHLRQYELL

CCCCCCCCCCCCCCCCCC(=O)O [Stearic acid, Stearic (octadecanoic) acid]
Effect of lipid on 300 nM Gsα-stimulated mAC3 (mAC3; 20 µM, in words): no significant effect; also recorded: inactive
mAC3 activity [%] (100% = 300nM Gsα stimulation) (mAC3; fatty acid 0.5 µM): 100%
mAC3 activity [%] (100% = 300nM Gsα stimulation) (mAC3; fatty acid 1 µM): 121% and 48% and 49% and 110% and 79%
mAC3 activity [%] (100% = 300nM Gsα stimulation) (mAC3; fatty acid 3 µM): 84% and 77% and 52% and 121% and 116%
mAC3 activity [%] (100% = 300nM Gsα stimulation) (mAC3; fatty acid 6 µM): 91% and 103% (2×) and 32% and 75%
mAC3 activity [%] (100% = 300nM Gsα stimulation) (mAC3; fatty acid 10 µM): 69% and 84% and 76% and 71% and 80% and 79%
mAC3 activity [%] (100% = 300nM Gsα stimulation) (mAC3; fatty acid 20 µM): 115% and 83% and 68% and 70% and 65% and 160%
mAC1 activity [%] (100% = 300nM Gsα stimulation); 20µM fatty acid concentration (mAC1): 126% and 77% and 95%
mAC8 activity [%] (100% = 300nM Gsα stimulation) (mAC8): 107% and 102%
mAC4 activity [%] (100% = 300nM Gsα stimulation); 20µM fatty acid concentration (mAC4): 79% and 60% and 83%
mAC6 activity [%] (100% = 300nM Gsα stimulation) (mAC6): 88% and 61% and 94% and 93%
mAC5 activity [%] (100% = 300nM Gsα stimulation) (mAC5; 20µM fatty acid concentration): 73% and 93% and 77%
mAC5 activity [%] (100% = 300nM Gsα stimulation) (mAC5; fatty acid 0.5 µM, individual experiments): 100%
mAC5 activity [%] (100% = 300nM Gsα stimulation) (mAC5; fatty acid 1 µM, individual experiments): 134% and 72%
mAC5 activity [%] (100% = 300nM Gsα stimulation) (mAC5; fatty acid 3 µM, individual experiments): 73% and 80% and 162%
mAC5 activity [%] (100% = 300nM Gsα stimulation) (mAC5; fatty acid 6 µM, individual experiments): 124% and 75% and 108% and 125%
mAC5 activity [%] (100% = 300nM Gsα stimulation) (mAC5; fatty acid 10 µM, individual experiments): 73% and 93% and 77%
mAC5 activity [%] (100% = 300nM Gsα stimulation) (mAC5; fatty acid 20 µM, individual experiments): 80% and 91% and 83%
